Experimental data as given in US20090318514A1, “Novel Pharmaceutical Compositions” (priority 2006, published 2009).
pIC50: −log10 of the molar value.

Columns and labels:
hTRβ = biological target: T1, hTRβ (Homo sapiens, UniProt P10828); experiment: TR competition binding assay with filter separation; conditions: competition with 125I-T3 tracer, full length hTRβ; read-out: TR-β IC50
T1 sequence (P10828 1-461): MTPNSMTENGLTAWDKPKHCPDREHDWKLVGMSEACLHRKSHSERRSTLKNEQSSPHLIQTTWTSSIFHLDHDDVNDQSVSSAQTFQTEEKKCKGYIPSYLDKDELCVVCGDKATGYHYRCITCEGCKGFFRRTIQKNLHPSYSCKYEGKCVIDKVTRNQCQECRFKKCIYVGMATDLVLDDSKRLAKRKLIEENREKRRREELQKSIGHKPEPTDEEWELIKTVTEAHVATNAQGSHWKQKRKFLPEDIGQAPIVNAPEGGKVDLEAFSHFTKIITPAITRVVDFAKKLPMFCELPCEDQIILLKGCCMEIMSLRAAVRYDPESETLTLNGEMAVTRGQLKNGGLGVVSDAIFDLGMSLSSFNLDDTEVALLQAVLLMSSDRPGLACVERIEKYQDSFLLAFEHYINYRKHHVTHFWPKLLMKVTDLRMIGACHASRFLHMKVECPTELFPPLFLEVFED
Procedure: TR Competition Binding Assay with Filter Separation
Compounds are tested for their ability to compete with the tracer ^125I-T3 for binding to full length hTRα and hTRβ. Receptor extracts and tracer are diluted in assay buffer (17 mM K2HPO4, 3 mM KH2PO4, 400 mM KCl, 1 mM MgCl2, 0.5 mM EDTA and 8.7% glycerol). ^125I-T3 is diluted to a final concentration of 0.2 nM and receptor is diluted to reach a final count in Trilux Microbeta of approximately 10000 ccpm. Compounds are typically serially diluted in DMSO from DMSO stock solutions of 10 mM. To 96 well microtiter plates are 100 μl tracer, 4 μl test compound dilution series and 100 μl receptor dilution added. The assay plates are incubated at +4° C. overnight (app. 16 h incubation). Receptor bound and free tracer are separated over a glass fiber filter (FILTERMAT B, PerkinElmer) on a Tomtec Cellharvester with 18 mM K2HPO4, 2 mM KH2PO4, 0.5 mM EDTA wash buffer. The filters are dried at 60° C. for 1 h and then merged with a scintillant wax (MELTILEX, PerkinElmer) on a Wallac Microsealer before measuring in a Trilux Microbeta. IC50s, the concentration test compound needed to decrease tracer binding by 50 percent, are generated via analysis of data in XLfit version 2.0 or later with a four parameter logistic model.

CHO/hThRβ1 = biological target: T2, CHO/hThRβ1 (Homo sapiens, UniProt P10828); experiment: Reporter cell line (TRAF) assay, agonist activity; type: cell-based; conditions: CHO/hThRβ1 reporter cells, alkaline phosphatase readout after 48 hours
T2 construct: The cDNAs encoding the full length human ThRα1 and ThRβ1 were cloned; expressed in transfected cells
T2 sequence (P10828 1-461): T1 sequence (P10828 1-461)
From the text: Vector Constructs, Generation of Reporter Cell Lines (TRAF), and Assay Procedure.
The cDNAs encoding the full length human ThRα1 and ThRβ1 were cloned in the mammalian expression vector pMT-hGH. The pDR4-ALP reporter vector contains one copy of the direct repeat sequence AGGTCA nnnnAGGTCA, fused upstream of the core promoter sequences of the mouse mammary tumor virus long terminal repeat (MMTV), replacing the glucocorticoid response elements. The DR4-MMTV promoter fragment was then cloned in the 5′ end of the cDNA encoding human placental alkaline phosphatase (ALP), followed in the 3′-end by the polyA-signal sequence of the human growth hormone gene. Chinese hamster ovary (CHO) K1 cells (ATCC No. CCL 61) were transfected in two steps, first with the receptor expression vectors pMT-hThRα1 and pMT-THRβ1, respectively, and the drug resistance vector pSV2-Neo, and in the second step, with the reporter vector pDR4-ALP and the drug resistance vector pKSV-Hyg. Individual drug resistant clones were isolated and selected based on T3 inducibility. One stable reporter cell clone each of CHO/hThRα1 and CHO/hThRβ1 were chosen for further study in response to various thyroid hormone agonists.
CHO/hThRα1 and CHO/hThRβ1 were seeded in growth medium (Coon's/F12, 10% L-3,5,3′-triiodothyronine and L-thyroxine depleted FCS, 2 mM L-glutamine) in 96-well plates at 20×10^3 cells per well. After 24 hour incubation at 37° C. in humidified chambers, at 5% CO2, conditioned medium was replaced by induction medium (OptiMEM, 2 mM L-glutamine, 50 μm/mL gentamycin) and cells were exposed to the test compounds at serial dilutions, at final DMSO concentration of 0.5% , or to serial dilution of T3 (positive control), to assess agonist activity of test compounds.
After 48 hours incubation at 37° C. in humidified chambers at 5% CO2 the level of alkaline phosphatase expressed and secreted into the cell culture medium was analyzed by chemiluminescence on MicroBeta Trilux.
The assay procedure described above was carried out for the compounds of Examples 1 to 40, 43-44 and 47-48.

SMILES	pIC50 (hTRβ)	β % agonism (CHO/hThRβ1)
Cc1nc(-c2nc3cc(Oc4c(Br)cc(CC(F)C(=O)O)cc4Br)ccc3[nH]2)c(C)o1 (stereo not drawn) [Example 32, 3-{3,5-Dibromo-4-[2-(2,5-dimethyl-oxazol4-yl)-1H-benzoimidazol-5-yloxy]-phenyl}-2-fluoropropionic acid]	9.31	75%
CC(C)(C)Cc1nc2cc(Oc3c(Br)cc(OCC(=O)O)cc3Br)ccc2[nH]1 [Example 15, {3,5-dibromo-4-{[2-(2,2-dimethylpropyl)-1H-benzimidazol-5-yl)oxy]phenoxy}acetic acid]	8.77	70%
Cc1cccc(-c2nc3cc(Oc4c(Br)cc(CCC(=O)O)cc4Br)ccc3[nH]2)c1 [Example 11, 3-(3,5-dibromo-4-{[2-(3-methylphenyl)-1H-benzimidazol-5-yl]oxy}phenyl)propanoic acid]	8.62	99%
CCCc1nc2cc(Oc3c(Br)cc(OCC(=O)O)cc3Br)ccc2[nH]1 [Example 17]	8.12	70%
O=C(O)CCCc1cc(Br)c(Oc2ccc3[nH]c(-c4ccc(F)cc4)nc3c2)c(Br)c1 [Example 5, 4-(3,5-dibromo-4-{[2-(4-fluorophenyl)-1H-benzimidazol-5-yl]oxy}phenyl)butanoic acid]	8.26	91%
CC(C)Cc1nc2cc(Oc3c(Br)cc(CC(F)C(=O)O)cc3Br)ccc2[nH]1 (racemic) [Example 10, 3-(3,5-dibromo-4-{[2-isobutyl-1H-benzimidazol-5-yl]oxy}phenyl)-2-fluoropropanoic acid]	9.85	100%
